Measured values from publication PMC4459685, “Design and characterization of a new peptide vector for short interfering RNA delivery” (Journal of Nanobiotechnology, 2015).

Assays:
siRNA [1] = assay: Isothermal titration calorimetry, titrating siRNA with GL1; type: binding
Protocol: The isothermal titration calorimetry experiments were conducted using a Nano-ITC calorimeter (TA Instruments). A 500 μM GL1 peptide solution and a 10 μM siRNA solution were both prepared in RNase-free water. All of the samples were degassed in a degassing station (TA Instruments) prior to the experiments. RNase-free water was placed in the ITC reference cell. For each titration, 2 μl of the peptide in a pipette rotating at 250 rpm was injected into the siRNA solution in the sample cell of the calorimeter, which was equilibrated to 25°C, with an interval of 300 s between injections. The heat of dilution was measured by titrating the GL1 solution into RNase-free water and was later subtracted from the sample measurement. The data were analyzed using NanoAnalyze software v.3.1.2.
The ability of GL1 to interact with siRNA was investigated by gel electrophoresis. Binding between peptide and siRNA prevented RNA from being stained by EtBr. […] At a slightly higher molar ratio 15/1, no free siNRA was detected on the agarose gel. […] This direct binding between cationic peptide and anionic siRNA would be initiated via electrostatic interactions. The formation of GL1-siRNA complexes and the thermodynamic parameters associated with the binding between peptide and siRNA was further investigated using isothermal titration calorimetry by titrating the siRNA with GL1. The heat exchange during the titration of siRNA by GL1 (in RNase-free water) was detected by the machine and output as raw data. By fitting the raw data (upper panel of Figure 2) to a single-site model (lower panel of Figure 2), the thermodynamic parameters during the interaction were obtained and listed in Table 1.
Figure 2 Calorimetric titration of siRNA with GL1 at 25°C in RNasefree water at pH 6. a Corrected thermogram of calorimetric titration of siRNA with GL1. b Binding analysis of siRNA with GL1 by fitting the raw data with an independent model. GL1 concentration was 500 μM and siRNA concentration was 10 μM.

CHO-K1 cells [2] = assay: FACS cellular uptake of Cy3-labeled GAPDH siRNA; type: cell-based, Chinese hamster; details: Cy3-labeled GAPDH siRNA 100 nM, 4 h
Protocol: The uptake of Cy3-labeled siRNA into the CHO-K1 cells was quantified with a BD FACSVantage SE Cell Sorter flow cytometry (BD Biosciences, United States). CHO-K1 cells were plated at a density of 50,000 cells per well and incubated for 24 h in a 24-well flat-bottom plate. The medium was replaced with GL1-siRNA complexes and control samples in OPTI-MEM (Invitrogen) or F12-K supplemented with 10% FBS with a siRNA concentration of 100 nM. After 4 h of incubation, the cells were rinsed with phosphate buffered saline (PBS) and washed with heparin (10 U/ml). After, trypsin–EDTA was added to detach the cells from the plate. The cells were re-suspended in 4% paraformaldehyde (PFA) and ready for quantitative analysis.
Figure 5 a Fluorescence microscope image of GL1-siRNA complexes at molar ratio 40/1 (magnification 40×). The red fluorescence indicated Cy3 labeled siRNA, blue fluorescence represented DAPI stained nuclei. […] Non-treated sample was negative control; Lipo-siRNA complexes were positive control. Cy3 labeled GAPDH siRNA was used here. siRNA concentration was 100 nM in both experiments. NT non-treated, MR peptide/siRNA molar ratio, Lipo Lipofectamine 2000. Results are expressed as mean ± standard deviation (n = 3).

eGFP siRNA = assay: Agarose gel-shift assay of peptide-siRNA complex formation; type: binding; details: 1.2% agarose gel, 300 ng eGFP siRNA
Protocol: The GL1-siRNA complexes in RNase-free water were made with 300 ng of eGFP siRNA. The samples of siRNA alone and GL1-siRNA complexes at molar ratios (peptide/siRNA) ranging from 1/1 to 80/1 were electrophoresed on a 1.2% wt/vol agarose gel in 1× TBE at 55 V for 1 h. The ethidium bromide-stained siRNA was visualized on an ultraviolet transilluminator with a camera.
Figure 1 Binding ability of siRNA to GL1 studied by agarose gel-shift assay The formed GL1-siRNA complexes, stained with ethidium bromide, were investigated by electrophoresis on agarose gel (1.2% wt/vol). siRNAs, targeting eGFP genes, were complexed with GL1 at a series of molar ratios from 1/1 to 80/1. Lane 1 was siRNA control, and lanes 2–8 indicated correlated molar ratios. The amount of siRNA was 300 ng.

CHO-K1 cells [3] = assay: MTT cytotoxicity assay; type: cell-based, Chinese hamster; details: siRNA 50 nM, 4 h Opti-MEM then 48 h, molar ratio 10/1
Protocol: The cytotoxicity of peptide-siRNA complexes was determined by the MTT assay. In brief, cells were seeded at 5,000 cells/well in clear, flat-bottomed, 96-well plates (Costar) 24 h before treatment. After being washed, 100 μl of Opti-MEM that contained peptide-siRNA complexes at different molar ratios was added to the wells and incubated for 4 h. Thereafter, 50 μl of 30% serum containing medium was added, and the cytotoxicity of the relevant reagents was determined by the MTT assay after 48 h. The absorbance at 570 nm was read on a plate reader (FLUOstar OPTIMA, BMG, Germany). The background absorbance of the multiwell plates at 690 nm was determined and subtracted from the 570 nm measurement. The results obtained from triplicate wells were averaged and normalized to the value obtained from the non-treated cells.
Figure 7 Cell viability results of CHO-K1 cells treated with naked Lipofectamine 2000 or GL1, and the complexes with siRNA (50 nM) at different molar ratios. NT non-treated, MR peptide/siRNA molar ratio, Lipo Lipofectamine 2000. Results are expressed as mean ± standard deviation (n = 3). *P value < 0.05, the cell viability after GL1 treatment is statistically significant than that after Lipo treatment.

siRNA [4] = details: cited from earlier work
Source text: Here, an amphipathic, cationic peptide GL1 was designed and investigated. Structurally, GL1 has dispersed cationic amino acids along the sequence, which differs from the arginine rich peptide R9, R9-hLF, and Tat. The peptide MPG and MPG-like peptides consist of a hydrophobic domain and a hydrophilic domain which contributes to their amphipathic property; while PF6 and PF14 incorporated a stearyl moiety in their sequences to improve amphiphilicity. However, peptide GL1 has hydrophilic and hydrophobic amino acids dispersed along the sequence, which leads to its amphipathicity ...

GL1 peptide = molecular target: T1, GL1 peptide (synthetic (designed)); assay: EMSA (agarose gel shift, EtBr); peptide/siRNA molar ratios 1/1 to 80/1; no free siRNA at 15/1, strongly reduced at 10/1; 300 ng siRNA; ITC: RNase-free water, pH 6, 25 C, 500 uM GL1 into 10 uM siRNA; gel shift: 1.2% agarose, EtBr, 20 min incubation, buffer not given; details: tags: N-terminal acetyl, C-terminal amide
T1 chain: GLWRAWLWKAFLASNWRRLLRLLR

[5] = ITC, 500 μM GL1 titrated into 10 μM siRNA, RNase-free water pH 6, 25°C

Question: For Ac-GLWRAWLWKAFLASNWRRLLRLLR-NH2 [GL1], which “n (molar stoichiometry, mol GL1 per mol siRNA)” value (siRNA [1]; [5]) is on record?
Answer: 7.16

Question: What about the “ΔH (enthalpy)” value (siRNA [1]; [5]) of the same molecule?
Answer: -18.71 kJ/mol

Question: What about the ΔS (siRNA [1]; [5]) of the same molecule?
Answer: 64.56 J/(mol K)

Question: And the Kd (siRNA [1]; ITC, 500 μM GL1 titrated into 10 μM siRNA, RNase-free water pH 6, 25°C, read-out: Kd (dissociation constant))?
Answer: 224 nM

Question: What about the ΔG (siRNA [1]; calculated with ΔG = ΔH − TΔS, ITC at 25°C) of the same molecule?
Answer: -37.94 kJ/mol

Question: And the “cellular uptake of siRNA” value (CHO-K1 cells [2]; F12-K with 10% FBS, molar ratio 20/1, mean n = 3)?
Answer: 75%

Question: What about the “cellular uptake of siRNA” value (CHO-K1 cells [2]; F12-K with 10% FBS, molar ratio 40/1, mean n = 3) of the same molecule?
Answer: 84%

Question: And the “cellular uptake of siRNA” value (CHO-K1 cells [2]; OPTI-MEM without serum, molar ratio 20/1, mean n = 3)?
Answer: 95%

Question: And the “cellular uptake of siRNA” value (CHO-K1 cells [2]; OPTI-MEM without serum, molar ratio 40/1, mean n = 3)?
Answer: 95%

Question: And the “cellular uptake of siRNA” value (CHO-K1 cells [2]; in the presence of serum, molar ratio not stated at the place, mean n = 3)?
Answer: ~ 84%

Question: And the “cellular uptake of siRNA” value (CHO-K1 cells [2]; serum free, molar ratio not stated at the place, mean n = 3)?
Answer: ~ 95%

Question: What about the “minimal peptide/siRNA molar ratio for siRNA delivery / complex formation” value (eGFP siRNA) of the same molecule?
Answer: around 10/1

Question: And the “peptide/siRNA molar ratio at which no free siRNA is detected (all free siRNA encapsulated)” value (eGFP siRNA; ethidium bromide, molar ratios 1/1 to 80/1)?
Answer: 15/1

Question: And the toxicity (CHO-K1 cells [3])?
Answer: did not cause toxicity

Question: With TP10 as the molecule, how does the “molar ratio required to encapsulate all the free siRNA” value (siRNA [4]) read?
Answer: 50/1

B1: eGFP siRNA (dsRNA)
RNA 1: GACGUAAACGGCCACAAGUUC
RNA 2: ACUUGUGGCCGUUUACGUCGC
Question: Does B1 bind (GL1 peptide)?
Answer: binds
